Source: ChEMBL document CHEMBL3120157, “Structures and solution conformational dynamics of stylissamides G and H from the Bahamian sponge Stylissa caribica” (J Nat Prod, 2014)
Residues, ends and D or L forms follow the SMILES beside them.

System: HCT-116
Assay: Cytotoxicity against human HCT116 cells assessed as cell viability by MTS assay
Format: functional, cell-based

Row | Compound | EC50 [µM]
1 | CC[C@H](C)[C@@H]1NC(=O)[C@H](CC(C)C)NC(=O)[C@@H]2CCCN2C(=O)[C@H](Cc2ccccc2)NC(=O)[C@@H]2CCCN2C(=O)[C@H](Cc2ccccc2)NC(=O)[C@@H]2CCCN2C1=O (cyclo(FPFPLIP)) | > 200
2 | CC[C@H](C)[C@@H]1NC(=O)[C@@H]2CCCN2C(=O)[C@H](Cc2c[nH]c3ccccc23)NC(=O)[C@@H]2CCCN2C(=O)[C@H](C(C)C)NC(=O)[C@H](Cc2ccccc2)NC(=O)[C@H](CO)NC1=O (cyclo(FVPWPIS)) | 5.7
